The test system of data set [1] is 4EBP1 T37/T46 phosphorylation (mTORC1). The data set can be described thus: AlphaLISA/MSD analysis of 4EBP1 phosphorylation in MDA-MB-468 cells. The class given is cell-based. The settings on record: Homo sapiens, MDA-MB-468, read-out: p4EBP1 IC50. How it is done: Cell culture and reagents. Cells were obtained from ATCC, grown in appropriate medium supplemented with 10% fetal bovine serum and 1% penicillin/streptomycin and maintained at 37 °C in a humidified incubator at 5% CO 2.
AlphaLISA and MesoScale Discovery (MSD) analysis of 4EBP1, S6K and AKT phosphorylation. mTOR substrate phosphorylation in MDA-MB-468 cells was assayed using AlphaLISA SureFire Ultra kits for p4EBP1 Thr37/46, p-P70S6K Thr389 and p-AKT1/2/3 Ser473 (PerkinElmer), and MSD Multi-Array Assay Systems for Phospho-4EBP1 (Thr37/46) and Phospho-AKT (Ser473) (MSD). Cells were seeded at 25,000 cells per well and exposed the next day to serial three-fold dilutions of compounds in complete medium with 0.1% dimethylsulfoxide (DMSO). After indicated incubation times, cells were lysed and AlphaLISA or MSD performed according to the manufacturers’ protocols. Samples were read using an EnVision Multilabel Plate Reader (PerkinElmer) using standard AlphaLISA settings or using an MSD plate reader. Data were plotted as a function of logM [compound] with a sigmoidal concentration response (variable slope) model fitted to the data to estimate the inhibitor half-maximum effective concentration (EC 50) in Prism 7 (GraphPad). Alternatively, results were analyzed as percentage of control in which 0% was set as signal from 1 μM Torin1 and 100% was set as the mean of DMSO wells on each plate, and inhibitor EC 50 was estimated as described

Data set [2] has as its target T1, β2(h) (antagonist radioligand) (Homo sapiens, UniProt P07550).
T1 construct: purchased ActivX Biosciences (KiNativ)
Briefly: Eurofins Safety Screen 44. The format is binding. The settings on record: read-out: % Inhibition of Control Values.

In data set [3] the test system is BZD (central) (agonist radioligand). Briefly: Eurofins Safety Screen 44. The class given is binding. The following applies: 10 µM.
For data set [4], the target named is T2, CB1(h) (agonist radioligand) (Homo sapiens, UniProt P21554).
T2 construct: purchased ActivX Biosciences (KiNativ)
Briefly: Eurofins Safety Screen 44. The settings on record: read-out: % Inhibition of Control Values. The class given is binding.

Data set [5] deals with T3, CB2(h) (agonist radioligand) (Homo sapiens, UniProt P34972).
T3 construct: purchased ActivX Biosciences (KiNativ)
T3 sequence (P34972 whole entry): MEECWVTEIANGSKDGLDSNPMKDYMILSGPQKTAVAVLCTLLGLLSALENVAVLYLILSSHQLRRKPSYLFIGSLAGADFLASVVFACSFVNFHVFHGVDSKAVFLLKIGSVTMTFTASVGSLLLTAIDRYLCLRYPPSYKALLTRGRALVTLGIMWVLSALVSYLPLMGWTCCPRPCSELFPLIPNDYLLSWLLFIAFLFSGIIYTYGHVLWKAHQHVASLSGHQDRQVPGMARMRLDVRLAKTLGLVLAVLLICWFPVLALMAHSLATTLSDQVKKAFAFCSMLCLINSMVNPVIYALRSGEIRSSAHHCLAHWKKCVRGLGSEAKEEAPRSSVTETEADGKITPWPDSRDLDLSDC
The data set can be described thus: Eurofins Safety Screen 44. The class given is binding. The following applies: read-out: % Inhibition of Control Values.

The target in data set [6] is T4, CCK1 (CCKA) (h) (agonist radioligand) (Homo sapiens, UniProt P32238).
T4 construct: purchased ActivX Biosciences (KiNativ)
T4 sequence (P32238 whole entry): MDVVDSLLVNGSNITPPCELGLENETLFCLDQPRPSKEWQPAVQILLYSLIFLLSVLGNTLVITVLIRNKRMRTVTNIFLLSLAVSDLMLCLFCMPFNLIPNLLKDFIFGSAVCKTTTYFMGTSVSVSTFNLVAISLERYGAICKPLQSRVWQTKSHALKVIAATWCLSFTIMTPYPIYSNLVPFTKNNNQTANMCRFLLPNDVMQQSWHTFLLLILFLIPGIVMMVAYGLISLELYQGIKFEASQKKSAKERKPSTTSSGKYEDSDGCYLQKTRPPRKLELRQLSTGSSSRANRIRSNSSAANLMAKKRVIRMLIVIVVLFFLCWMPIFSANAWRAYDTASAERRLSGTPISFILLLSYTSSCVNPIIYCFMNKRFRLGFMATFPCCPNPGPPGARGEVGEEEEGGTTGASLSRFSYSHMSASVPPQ
Briefly: Eurofins Safety Screen 44. The class given is binding. The following applies: read-out: % Inhibition of Control Values.

Data set [7] concerns the target T5, D1(h) (antagonist radioligand) (Homo sapiens, UniProt P21728).
T5 construct: purchased ActivX Biosciences (KiNativ)
Briefly: Eurofins Safety Screen 44. The format is binding. The settings on record: read-out: % Inhibition of Control Values.

The target in data set [8] is T6, D2S(h) (agonist radioligand) (Homo sapiens, UniProt P14416).
T6 construct: purchased ActivX Biosciences (KiNativ)
The data set can be described thus: Eurofins Safety Screen 44. The following applies: read-out: % Inhibition of Control Values. The format is binding.

The test system of data set [9] is NMDA (antagonist radioligand). Briefly: Eurofins Safety Screen 44. The class given is binding. The settings on record: 10 µM.
The target of data set [10] is T7, H1(h) (antagonist radioligand) (Homo sapiens, UniProt P35367).
T7 construct: purchased ActivX Biosciences (KiNativ)
T7 sequence (P35367 whole entry): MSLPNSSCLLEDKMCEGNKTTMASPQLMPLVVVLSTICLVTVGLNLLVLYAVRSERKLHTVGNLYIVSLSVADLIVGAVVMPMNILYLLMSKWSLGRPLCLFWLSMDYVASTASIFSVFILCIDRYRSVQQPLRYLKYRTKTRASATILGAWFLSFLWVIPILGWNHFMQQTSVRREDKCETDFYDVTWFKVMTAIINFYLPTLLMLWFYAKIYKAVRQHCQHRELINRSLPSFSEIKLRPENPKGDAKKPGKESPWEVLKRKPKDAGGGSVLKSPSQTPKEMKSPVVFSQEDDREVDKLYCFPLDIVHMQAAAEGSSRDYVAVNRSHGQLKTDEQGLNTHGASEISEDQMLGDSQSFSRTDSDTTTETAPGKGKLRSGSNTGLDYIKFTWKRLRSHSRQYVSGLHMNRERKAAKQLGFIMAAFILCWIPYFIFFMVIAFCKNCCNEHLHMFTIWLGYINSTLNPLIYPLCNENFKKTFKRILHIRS
The data set can be described thus: Eurofins Safety Screen 44. The following applies: read-out: % Inhibition of Control Values. The format is binding.

The target in data set [11] is T8, MAO-A (antagonist radioligand) (Rattus norvegicus, UniProt P21396).
T8 construct: purchased ActivX Biosciences (KiNativ)
The data set can be described thus: Eurofins Safety Screen 44. The class given is binding. The following applies: read-out: % Inhibition of Control Values.

In data set [12] the target is T9, M1(h) (antagonist radioligand) (Homo sapiens, UniProt P11229).
T9 construct: purchased ActivX Biosciences (KiNativ)
The data set can be described thus: Eurofins Safety Screen 44. The class given is binding. The settings on record: read-out: % Inhibition of Control Values.

The target in data set [13] is T10, M2 (h) (antagonist radioligand) (Homo sapiens, UniProt P08172).
T10 construct: purchased ActivX Biosciences (KiNativ)
T10 sequence (P08172 whole entry): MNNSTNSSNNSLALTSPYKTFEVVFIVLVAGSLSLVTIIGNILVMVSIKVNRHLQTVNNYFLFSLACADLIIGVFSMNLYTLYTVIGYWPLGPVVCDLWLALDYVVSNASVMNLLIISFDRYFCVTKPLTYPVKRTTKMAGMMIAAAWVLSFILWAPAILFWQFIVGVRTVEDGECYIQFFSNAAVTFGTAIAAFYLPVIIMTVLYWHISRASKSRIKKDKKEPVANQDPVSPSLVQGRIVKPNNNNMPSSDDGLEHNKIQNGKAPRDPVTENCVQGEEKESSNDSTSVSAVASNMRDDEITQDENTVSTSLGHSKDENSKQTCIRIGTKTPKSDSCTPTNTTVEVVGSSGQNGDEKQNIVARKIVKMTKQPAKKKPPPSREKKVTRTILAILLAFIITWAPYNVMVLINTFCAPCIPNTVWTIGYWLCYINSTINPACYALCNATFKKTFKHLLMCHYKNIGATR
The data set can be described thus: Eurofins Safety Screen 44. The format is binding. The following applies: read-out: % Inhibition of Control Values.

Data set [14] addresses T11, M3(h) (antagonist radioligand) (Homo sapiens, UniProt P20309).
T11 construct: purchased ActivX Biosciences (KiNativ)
Briefly: Eurofins Safety Screen 44. The following applies: read-out: % Inhibition of Control Values. The class given is binding.

The target of data set [15] is T12, N neuronal α4β2 (h) (agonist radioligand) (Homo sapiens, UniProt P17787+P43681).
T12 construct: purchased ActivX Biosciences (KiNativ)
T12 sequence (P43681 29-627 limits assumed): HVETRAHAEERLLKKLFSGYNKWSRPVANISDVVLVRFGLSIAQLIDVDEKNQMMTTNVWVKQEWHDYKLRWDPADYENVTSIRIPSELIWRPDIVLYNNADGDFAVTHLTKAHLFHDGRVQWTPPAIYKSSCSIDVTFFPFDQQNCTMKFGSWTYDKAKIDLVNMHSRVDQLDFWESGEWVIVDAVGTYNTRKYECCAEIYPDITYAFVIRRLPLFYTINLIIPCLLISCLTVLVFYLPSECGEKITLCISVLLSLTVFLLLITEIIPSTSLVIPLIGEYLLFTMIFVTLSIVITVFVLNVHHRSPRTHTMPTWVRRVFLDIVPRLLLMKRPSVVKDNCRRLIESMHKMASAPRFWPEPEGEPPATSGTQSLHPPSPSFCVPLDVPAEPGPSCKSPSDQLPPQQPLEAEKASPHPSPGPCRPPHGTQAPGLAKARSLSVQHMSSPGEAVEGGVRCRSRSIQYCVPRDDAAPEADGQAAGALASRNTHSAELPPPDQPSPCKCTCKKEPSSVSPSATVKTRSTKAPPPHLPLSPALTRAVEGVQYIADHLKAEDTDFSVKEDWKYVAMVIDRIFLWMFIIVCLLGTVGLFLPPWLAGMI
T12 sequence (P17787 26-502): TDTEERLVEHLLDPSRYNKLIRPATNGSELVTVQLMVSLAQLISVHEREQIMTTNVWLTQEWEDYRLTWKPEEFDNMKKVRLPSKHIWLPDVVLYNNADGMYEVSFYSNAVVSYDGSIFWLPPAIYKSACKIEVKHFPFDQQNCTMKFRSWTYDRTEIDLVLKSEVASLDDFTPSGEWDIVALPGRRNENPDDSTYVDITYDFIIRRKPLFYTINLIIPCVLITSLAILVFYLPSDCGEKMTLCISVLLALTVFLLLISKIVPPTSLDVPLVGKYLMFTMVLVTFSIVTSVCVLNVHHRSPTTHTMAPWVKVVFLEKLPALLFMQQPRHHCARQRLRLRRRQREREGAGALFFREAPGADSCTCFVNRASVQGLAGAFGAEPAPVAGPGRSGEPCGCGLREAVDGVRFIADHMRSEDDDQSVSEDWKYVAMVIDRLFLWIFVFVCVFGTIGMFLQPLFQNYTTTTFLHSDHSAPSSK
The data set can be described thus: Eurofins Safety Screen 44. The settings on record: read-out: % Inhibition of Control Values. The class given is binding.

For data set [16], the target named is T13, kappa (h) (KOP) (agonist radioligand) (Homo sapiens, UniProt P41145).
T13 construct: purchased ActivX Biosciences (KiNativ)
The data set can be described thus: Eurofins Safety Screen 44. The format is binding. The following applies: read-out: % Inhibition of Control Values.

Data set [17] has as its target T14, 5-HT1A(h) (agonist radioligand) (Homo sapiens, UniProt P08908).
T14 construct: purchased ActivX Biosciences (KiNativ)
The data set can be described thus: Eurofins Safety Screen 44. The class given is binding. The following applies: read-out: % Inhibition of Control Values.

Data set [18] concerns the target T15, 5-HT2B(h) (agonist radioligand) (Homo sapiens, UniProt P41595).
T15 construct: purchased ActivX Biosciences (KiNativ)
Briefly: Eurofins Safety Screen 44. The format is binding. The settings on record: read-out: % Inhibition of Control Values.

Data set [19] deals with T16, 5-HT3(h) (antagonist radioligand) (Homo sapiens, UniProt P46098).
T16 construct: purchased ActivX Biosciences (KiNativ)
Briefly: Eurofins Safety Screen 44. The format is binding. The following applies: read-out: % Inhibition of Control Values.

The test system of data set [20] is KV channel (antagonist radioligand). Briefly: Eurofins Safety Screen 44. The class given is binding. The following applies: 10 µM.
Another data set has as its target T17, COX2(h) (Homo sapiens, UniProt P35354).
T17 construct: Eurofins (ran the panel)
The data set can be described thus: Eurofins Safety Screen 44. The format is biochemical. The following applies: read-out: % Inhibition of Control Values.

A further data set deals with T18, Lck kinase (h) (Homo sapiens, UniProt P06239).
T18 construct: Eurofins (ran the panel)
T18 sequence (P06239 whole entry): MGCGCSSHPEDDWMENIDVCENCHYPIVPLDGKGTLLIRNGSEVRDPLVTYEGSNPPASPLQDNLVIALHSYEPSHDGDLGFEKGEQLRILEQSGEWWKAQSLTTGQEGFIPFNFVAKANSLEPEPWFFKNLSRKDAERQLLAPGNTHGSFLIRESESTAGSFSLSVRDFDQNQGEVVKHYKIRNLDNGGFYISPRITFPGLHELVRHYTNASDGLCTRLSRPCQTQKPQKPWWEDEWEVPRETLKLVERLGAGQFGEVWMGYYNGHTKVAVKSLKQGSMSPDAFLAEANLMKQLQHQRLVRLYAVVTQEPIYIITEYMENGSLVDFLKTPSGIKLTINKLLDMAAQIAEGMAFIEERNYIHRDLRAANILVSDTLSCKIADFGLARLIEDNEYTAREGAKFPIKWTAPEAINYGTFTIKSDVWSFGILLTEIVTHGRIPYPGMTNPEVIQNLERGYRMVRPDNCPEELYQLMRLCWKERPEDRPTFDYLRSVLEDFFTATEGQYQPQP
Briefly: Eurofins Safety Screen 44. The class given is biochemical. The settings on record: read-out: % Inhibition of Control Values.

A further data set deals with T19, acetylcholinesterase (h) (Homo sapiens, UniProt P22303).
T19 construct: Eurofins (ran the panel)
Briefly: Eurofins Safety Screen 44. The class given is biochemical. The following applies: read-out: % Inhibition of Control Values.

A further data set concerns the target hERG potassium channel (Homo sapiens, UniProt Q12809). The data set can be described thus: Eurofins Safety Screen 44. The settings on record: probe [3H] Dofetilide.
A further data set relates to Wnk1, Wnk2, Wnk4. The data set can be described thus: KiNativ kinase panel. The following applies: 1 μM; MCF-7 Cells; Activation Loop; IGDLGLATLKR
The format is cell-based, human.

Each structure is given as a SMILES string.

T11 sequence (P20309 whole entry): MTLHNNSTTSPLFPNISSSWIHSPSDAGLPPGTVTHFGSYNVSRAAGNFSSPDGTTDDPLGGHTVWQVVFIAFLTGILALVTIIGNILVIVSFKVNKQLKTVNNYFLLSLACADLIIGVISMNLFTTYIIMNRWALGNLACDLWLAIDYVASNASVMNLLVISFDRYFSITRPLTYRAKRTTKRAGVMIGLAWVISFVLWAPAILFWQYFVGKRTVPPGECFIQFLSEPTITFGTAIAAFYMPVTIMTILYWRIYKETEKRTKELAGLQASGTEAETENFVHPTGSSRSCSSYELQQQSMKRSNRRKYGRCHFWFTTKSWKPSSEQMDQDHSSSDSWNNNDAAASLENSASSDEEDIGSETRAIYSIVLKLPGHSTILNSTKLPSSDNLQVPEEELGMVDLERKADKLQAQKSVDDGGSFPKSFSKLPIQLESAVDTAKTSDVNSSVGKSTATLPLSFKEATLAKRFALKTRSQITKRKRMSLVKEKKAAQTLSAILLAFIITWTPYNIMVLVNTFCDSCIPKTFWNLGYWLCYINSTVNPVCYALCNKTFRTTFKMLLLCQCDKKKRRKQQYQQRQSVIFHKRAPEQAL
T1 sequence (P07550 whole entry): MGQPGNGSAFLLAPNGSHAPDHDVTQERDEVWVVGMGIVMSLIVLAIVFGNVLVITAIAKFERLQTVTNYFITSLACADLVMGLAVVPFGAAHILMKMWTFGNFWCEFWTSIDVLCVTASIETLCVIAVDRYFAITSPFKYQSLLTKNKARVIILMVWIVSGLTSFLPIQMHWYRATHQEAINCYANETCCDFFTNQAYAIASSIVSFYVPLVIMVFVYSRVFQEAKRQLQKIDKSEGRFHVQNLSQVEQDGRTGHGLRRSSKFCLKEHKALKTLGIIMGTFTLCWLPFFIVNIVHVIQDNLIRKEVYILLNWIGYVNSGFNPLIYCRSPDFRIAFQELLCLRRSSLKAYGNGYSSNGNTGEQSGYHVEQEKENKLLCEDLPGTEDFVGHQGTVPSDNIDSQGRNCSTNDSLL
T17 sequence (P35354 18-604): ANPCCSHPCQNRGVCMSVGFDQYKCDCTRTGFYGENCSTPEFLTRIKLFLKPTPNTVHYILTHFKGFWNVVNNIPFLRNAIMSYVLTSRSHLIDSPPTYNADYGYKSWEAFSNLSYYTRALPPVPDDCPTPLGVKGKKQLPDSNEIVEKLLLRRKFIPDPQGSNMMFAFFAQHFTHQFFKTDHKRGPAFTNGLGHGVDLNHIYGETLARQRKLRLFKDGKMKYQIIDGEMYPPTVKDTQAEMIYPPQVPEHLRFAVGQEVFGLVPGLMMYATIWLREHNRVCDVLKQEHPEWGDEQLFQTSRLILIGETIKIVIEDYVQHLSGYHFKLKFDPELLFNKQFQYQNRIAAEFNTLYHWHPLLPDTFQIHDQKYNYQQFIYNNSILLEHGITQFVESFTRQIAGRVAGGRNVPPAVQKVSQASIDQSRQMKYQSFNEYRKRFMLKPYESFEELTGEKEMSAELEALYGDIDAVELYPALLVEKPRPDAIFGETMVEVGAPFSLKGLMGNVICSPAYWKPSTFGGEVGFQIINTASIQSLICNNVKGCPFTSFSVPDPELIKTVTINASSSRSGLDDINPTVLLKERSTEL

Regarding `CO[C@H]1C[C@@H]2CC[C@@H](C)[C@@](O)(O2)C(=O)C(=O)N2CCCC[C@H]2C(=O)O[C@H]([C@H](C)C[C@@H]2CC[C@@H](OC(=O)NCCOCCOCCOCCOCCOCCOCCOCCOCCC(=O)N3CCc4cc(Cn5nc(-c6ccc7oc(N)nc7c6)c6c(N)ncnc65)ccc4C3)[C@H](OC)C2)C[C@@H](O)[C@H](C)/C=C(\C)[C@@H](O)[C@@H](OC)C(=O)[C@H](C)C[C@H](C)/C=C/C=C/C=C/1C` [compound 38], the IC50 in data set [1] came to 0.48 nM. For the same compound, the inhibition at 10 µM in data set [2] is -3.3%; in data set [4], -26.1%; in data set [5] it was 0.6%; in data set [6] it was -51.3%; in data set [7] it was -0.5%; in [8] it was 12.2%. Moreover, the inhibition at 10 µM was -12.6% in data set [10]; 5.5% in data set [11]; -5.4% in data set [12]; -3% in data set [13]; -14.3% in [14]; -8.5% in [15]. Besides, the inhibition at 10 µM was 0.6% in [16]; -9.4% in data set [17]; -14.5% in [18]; -4.6% in data set [19]; 4.4% at COX2(h); 11.3% on Lck kinase (h). Further, the inhibition at 10 µM at acetylcholinesterase (h) was -15.4%; at hERG potassium channel it was -1.2%. Moreover, the “% Inhibition of Control Values” in [3] is 3.3%; in data set [9], 13.7%; in data set [20], -8.0%.

With `CO[C@H]1C[C@@H]2CC[C@@H](C)[C@@](O)(O2)C(=O)C(=O)N2CCCC[C@H]2C(=O)O[C@H]([C@H](C)C[C@@H]2CC[C@@H](OC(=O)NCCOCCOCCOCCOCCOCCOCCOCCOCCC(=O)NCCS(=O)(=O)c3ccc(C(=O)N4CCOc5ccc(-c6ccc(N)nc6)cc5C4)c(C)c3F)[C@H](OC)C2)C[C@@H](O)[C@H](C)/C=C(\C)[C@@H](O)[C@@H](OC)C(=O)[C@H](C)C[C@H](C)/C=C/C=C/C=C/1C` [compound 40], the “KiNativ Kinase Panel Data” value with Wnk1, Wnk2, Wnk4 was -17.4.

These data come from publication PMC9841523 (Journal of Medicinal Chemistry, 2022).
